# In patent US10435399B2, “HDAC6 inhibitory heterocyclic compound” (TAKEDA PHARMACEUTICAL COMPANY LIMITED, priority 2017, dated 2019):
# Biological target: T1, HDAC6 enzyme (Homo sapiens, UniProt Q9UBN7)
# T1 construct: transducing full length HDAC6 gene into Sf-9 insect cells; GST; purchased SignalChem; host or cells: Sf-9 insect cells
# T1 sequence (Q9UBN7 1-1215): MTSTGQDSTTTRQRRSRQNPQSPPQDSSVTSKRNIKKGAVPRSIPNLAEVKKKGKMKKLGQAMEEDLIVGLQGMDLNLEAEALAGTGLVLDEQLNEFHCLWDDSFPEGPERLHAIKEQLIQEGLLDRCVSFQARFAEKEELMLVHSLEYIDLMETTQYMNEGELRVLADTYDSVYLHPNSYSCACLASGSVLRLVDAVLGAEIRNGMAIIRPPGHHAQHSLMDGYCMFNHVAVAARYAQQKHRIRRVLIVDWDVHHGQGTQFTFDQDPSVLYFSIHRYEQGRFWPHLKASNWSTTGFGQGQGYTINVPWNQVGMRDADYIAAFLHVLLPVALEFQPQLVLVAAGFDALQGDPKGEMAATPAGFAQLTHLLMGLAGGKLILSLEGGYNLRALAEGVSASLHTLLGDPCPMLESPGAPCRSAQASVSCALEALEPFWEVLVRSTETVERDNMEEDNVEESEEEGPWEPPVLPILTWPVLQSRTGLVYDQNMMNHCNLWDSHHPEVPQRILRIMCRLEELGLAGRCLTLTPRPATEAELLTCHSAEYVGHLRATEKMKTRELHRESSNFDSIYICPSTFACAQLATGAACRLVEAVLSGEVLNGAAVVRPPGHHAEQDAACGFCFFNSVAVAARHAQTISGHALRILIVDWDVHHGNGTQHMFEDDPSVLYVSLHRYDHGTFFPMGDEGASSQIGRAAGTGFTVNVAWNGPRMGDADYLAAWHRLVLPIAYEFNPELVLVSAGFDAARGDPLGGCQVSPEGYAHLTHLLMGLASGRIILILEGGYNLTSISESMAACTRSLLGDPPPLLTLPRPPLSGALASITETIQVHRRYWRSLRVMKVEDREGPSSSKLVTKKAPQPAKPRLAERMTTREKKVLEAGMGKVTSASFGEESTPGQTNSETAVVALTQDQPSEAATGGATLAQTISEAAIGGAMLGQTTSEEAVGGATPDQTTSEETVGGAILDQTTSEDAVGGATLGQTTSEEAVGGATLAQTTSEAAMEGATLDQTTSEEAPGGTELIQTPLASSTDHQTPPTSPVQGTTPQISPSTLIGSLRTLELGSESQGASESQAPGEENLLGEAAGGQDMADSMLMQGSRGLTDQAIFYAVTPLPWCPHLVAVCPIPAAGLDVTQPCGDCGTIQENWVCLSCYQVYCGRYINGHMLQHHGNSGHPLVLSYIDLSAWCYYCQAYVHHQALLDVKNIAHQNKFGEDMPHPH
# Test: HDAC6 enzyme inhibitory activity (HDAC-Glo I/II Assay kit)
# Assay type: biochemical
# Settings: 10 μM; wells without enzyme = 100% inhibition; read-out: HDAC6 inhibitory rate (%) (10 μM)
# Summary of the method: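 Full-length human HDAC6 (GST-purified, Sf-9 expressed) preincubated with compound 60 min at room temperature in Tris-HCl pH 7.5 buffer with MgCl2, KCl, NaCl, glutathione, Tween-20. HDAC-Glo I/II substrate-developer then added, 20 min room temperature, luminescence read. Inhibition relative to no-enzyme wells as 100%.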
row,Compound,inhibition at 10 µM [%]
1,"O=C1c2cc(-c3nnc(C(F)F)o3)ccc2CN1c1ccccc1-c1cccc(Cl)c1 [Example 283, 2-(3′-chlorobiphenyl-2-yl)-6-(5-(difluoromethyl)-1,3,4-oxadiazol-2-yl)isoindolin-1-one]",99
2,"O=C1c2cc(-c3nnc(C(F)F)o3)ccc2CN1c1ccccc1-c1cc(F)cc(F)c1 [Example 284, 2-(3′,5′-difluorobiphenyl-2-yl)-6-(5-(difluoromethyl)-1,3,4-oxadiazol-2-yl)isoindolin-1-one]",101
3,"O=C1c2cc(-c3nnc(C(F)F)o3)ccc2CN1c1ccccc1-c1ccc(C2CC2)cc1 [Example 285, 2-(4′-cyclopropylbiphenyl-2-yl)-6-(5-(difluoromethyl)-1,3,4-oxadiazol-2-yl)isoindolin-1-one]",95
4,"O=C1c2cc(-c3nnc(C(F)F)o3)ccc2CN1c1ccccc1-c1cccc(C2CC2)c1 [Example 286, 2-(3′-cyclopropylbiphenyl-2-yl)-6-(5-(difluoromethyl)-1,3,4-oxadiazol-2-yl)isoindolin-1-one]",99
5,"O=C1c2cc(-c3nnc(C(F)F)o3)ccc2CN1c1ccccc1-c1ccc2c(c1)CCO2 [Example 287, 6-(5-(difluoromethyl)-1,3,4-oxadiazol-2-yl)-2-(2-(2,3-dihydro-1-benzofuran-5-yl)phenyl)isoindolin-1-one]",100
6,"O=C1c2cc(-c3nnc(C(F)F)o3)ccc2CN1c1ccccc1-c1cccc2c1CCO2 [Example 288, 6-(5-(difluoromethyl)-1,3,4-oxadiazol-2-yl)-2-(2-(2,3-dihydro-1-benzofuran-4-yl)phenyl)isoindolin-1-one]",102
7,"O=C1c2cc(-c3nnc(C(F)F)o3)ccc2CN1c1ccccc1-c1cccc2c1OCC2 [Example 289, 6-(5-(difluoromethyl)-1,3,4-oxadiazol-2-yl)-2-(2-(2,3-dihydro-1-benzofuran-7-yl)phenyl)isoindolin-1-one]",101
8,"CCOc1cc(-c2ccccc2N2Cc3ccc(-c4nnc(C(F)F)o4)cc3C2=O)ccn1 [Example 290, 6-(5-(difluoromethyl)-1,3,4-oxadiazol-2-yl)-2-(2-(2-ethoxypyridin-4-yl)-phenyl)isoindolin-1-one]",99
9,"CCOc1cnccc1-c1ccccc1N1Cc2ccc(-c3nnc(C(F)F)o3)cc2C1=O [Example 291, 6-(5-(difluoromethyl)-1,3,4-oxadiazol-2-yl)-2-(2-(3-ethoxypyridin-4-yl)-phenyl)isoindolin-1-one]",98
10,"O=C1c2cc(-c3nnc(C(F)F)o3)ccc2CN1c1ccccc1-c1ccc(C(F)F)cc1 [Example 292, 2-(4′-(difluoromethyl)-biphenyl-2-yl)-6-(5-(difluoromethyl)-1,3,4-oxadiazol-2-yl)isoindolin-1-one]",97
11,"O=C1c2cc(-c3nnc(C(F)F)o3)ccc2CN1c1ccccc1-c1cccc(C(F)F)c1 [Example 293, 2-(3′-(difluoromethyl)-biphenyl-2-yl)-6-(5-(difluoromethyl)-1,3,4-oxadiazol-2-yl)isoindolin-1-one]",100
12,"CC(C)Oc1cc(-c2ccccc2N2Cc3ccc(-c4nnc(C(F)F)o4)cc3C2=O)ccn1 [Example 294, 6-(5-(difluoromethyl)-1,3,4-oxadiazol-2-yl)-2-(2-(2-isopropoxypyridin-4-yl)phenyl)isoindolin-1-one]",100
13,"COc1ncc(Cl)cc1-c1ccccc1N1Cc2ccc(-c3nnc(C(F)F)o3)cc2C1=O [Example 295, 2-(2-(5-chloro-2-methoxy-pyridin-3-yl)phenyl)-6-(5-(difluoromethyl)-1,3,4-oxadiazol-2-yl)isoindolin-1-one]",102
14,"O=C1c2cc(-c3nnc(C(F)F)o3)ccc2CN1c1ccccc1-c1cccc(OC(F)F)c1 [Example 296, 2-(3′(difluoromethoxy)-biphenyl-2-yl)-6-(5-(difluoromethyl)-1,3,4-oxadiazol-2-yl)isoindolin-1-one]",101
15,"O=C1c2cc(-c3nnc(C(F)F)o3)ccc2CN1c1ccccc1-c1cncc(C(F)(F)F)c1 [Example 297, 6-(5-(difluoromethyl)-1,3,4-oxadiazol-2-yl)-2-(2-(5-(trifluoromethyl)pyridin-3-yl)phenyl)isoindolin-1-one]",98
16,"O=C1c2cc(-c3nnc(C(F)F)o3)ccc2CN1c1ccccc1-c1ccccc1OC(F)(F)F [Example 298, 6-(5-(difluoromethyl)-1,3,4-oxadiazol-2-yl)-2-(2′-(trifluoromethoxy)biphenyl-2-yl)isoindolin-1-one]",100
17,"O=C1c2cc(-c3nnc(C(F)F)o3)ccc2CN1c1ccccc1-c1ccc(OC(F)(F)F)cc1 [Example 299, 6-(5-(difluoromethyl)-1,3,4-oxadiazol-2-yl)-2-(4′-(trifluoromethoxy)biphenyl-2-yl)isoindolin-1-one]",94
18,"O=C1c2cc(-c3nnc(C(F)F)o3)ccc2CN1c1ccccc1-c1cccc(OC(F)(F)F)c1 [Example 300, 6-(5-(difluoromethyl)-1,3,4-oxadiazol-2-yl)-2-(3′-(trifluoromethoxy)biphenyl-2-yl)isoindolin-1-one]",97
19,"O=C1c2cc(-c3nnc(C(F)F)o3)ccc2CN1c1ccccc1-c1cccc(F)n1 [Example 301, 6-(5-(difluoromethyl)-1,3,4-oxadiazol-2-yl)-2-(2-(6-fluoropyridin-2-yl)phenyl)-isoindolin-1-one]",106
20,"COc1cccc(-c2ccccc2N2Cc3ccc(-c4nnc(C(F)F)o4)cc3C2=O)n1 [Example 302, 6-(5-(difluoromethyl)-1,3,4-oxadiazol-2-yl)-2-(2-(6-methoxypyridin-2-yl)-phenyl)isoindolin-1-one]",100
21,"O=C1c2cc(-c3nnc(C(F)F)o3)ccc2CN1c1ccccc1-c1cnc2occc2c1 [Example 303, 6-(5-(difluoromethyl)-1,3,4-oxadiazol-2-yl)-2-(2-(furo-[2,3-b]pyridin-5-yl)phenyl)-isoindolin-1-one]",99
22,"O=C1c2cc(-c3nnc(C(F)F)o3)ccc2CN1c1ccccc1-c1ccc2c(c1)OCC2 [Example 304, 6-(5-(difluoromethyl)-1,3,4-oxadiazol-2-yl)-2-(2-(2,3-dihydro-1-benzofuran-6-yl)phenyl)isoindolin-1-one]",99
23,"O=C1c2cc(-c3nnc(C(F)F)o3)ccc2CN1c1ccccc1-c1cccc(Cl)n1 [Example 305, 2-(2-(6-chloropyridin-2-yl)-phenyl)-6-(5-(difluoro-methyl)-1,3,4-oxadiazol-2-yl)isoindolin-1-one]",101
24,"Cc1cn2cc(-c3ccccc3N3Cc4ccc(-c5nnc(C(F)F)o5)cc4C3=O)ccc2n1 [Example 306, 6-(5-(difluoromethyl)-1,3,4-oxadiazol-2-yl)-2-(2-(2-methylimidazo[1,2-a]-pyridin-6-yl)phenyl)-isoindolin-1-one]",101
25,"O=C1c2cc(-c3nnc(C(F)F)o3)ccc2CN1c1ccccc1-c1ccc(F)c(F)c1 [Example 307, 2-(3′,4′-difluorobiphenyl-2-yl)-6-(5-(difluoromethyl)-1,3,4-oxadiazol-2-yl)-isoindolin-1-one]",98
26,"O=C1c2cc(-c3nnc(C(F)F)o3)ccc2CN1c1ccccc1-c1cccc(F)c1F [Example 308, 2-(2′,3′-difluorobiphenyl-2-yl)-6-(5-(difluoromethyl)-1,3,4-oxadiazol-2-yl)-isoindolin-1-one]",97
27,"O=C1c2cc(-c3nnc(C(F)F)o3)ccc2CN1c1ccccc1-c1cc(F)ccc1F [Example 309, 2-(2′,5′-difluorobiphenyl-2-yl)-6-(5-(difluoromethyl)-1,3,4-oxadiazol-2-yl)isoindolin-1-one]",97
28,"O=C1c2cc(-c3nnc(C(F)F)o3)ccc2CN1c1ccccc1-c1ccc(F)cc1F [Example 310, 2-(2′,4′-difluorobiphenyl-2-yl)-6-(5-(difluoromethyl)-1,3,4-oxadiazol-2-yl)isoindolin-1-one]",91
